#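 Results reflect a 48-hour exposure of cells in 96-well plates to compound at five concentrations. GI50 marks 50% less growth. TGI: concentration producing complete growth inhibition.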
# Legend:
# Assay in all cases: DTP human tumour cell line panel, 48 h
# [1] = tested on: NCI-H23 lung
# [2] = tested on: OVCAR-5 ovarian
# [3] = tested on: SNB-19 CNS
# [4] = tested on: SF-295 CNS
# [5] = tested on: ACHN renal
# [6] = tested on: SN12C renal
# [7] = tested on: OVCAR-4 ovarian
# [8] = tested on: CAKI-1 renal
# [9] = tested on: OVCAR-3 ovarian
# [10] = tested on: NCI-H460 lung
# [11] = tested on: SR leukemia
# [12] = tested on: NCI-H226 lung
# [13] = tested on: HCT-15 colon
# [14] = tested on: DU-145 prostate
# [15] = tested on: SF-268 CNS
# [16] = tested on: KM12 colon
# [17] = tested on: UO-31 renal
# [18] = tested on: MALME-3M melanoma
# [19] = tested on: M14 melanoma
# [20] = tested on: HT29 colon
# [21] = tested on: SF-539 CNS
# [22] = tested on: SK-MEL-5 melanoma
# [23] = tested on: 786-0 renal
# [24] = tested on: COLO 205 colon
# [25] = tested on: HCT-116 colon
# [26] = tested on: HL-60(TB) leukemia
# [27] = tested on: U251 CNS
# [28] = tested on: LOX IMVI melanoma
# [29] = tested on: UACC-257 melanoma
# [30] = tested on: MOLT-4 leukemia
# [31] = tested on: A498 renal
# [32] = tested on: HCC-2998 colon
# [33] = tested on: NCI-H522 lung
# [34] = tested on: TK-10 renal
# [35] = tested on: BT-549 breast
# [36] = tested on: A549 NSCLC
# [37] = tested on: SK-MEL-28 melanoma
# [38] = tested on: MCF7 breast
# [39] = tested on: EKVX NSCLC
# [40] = tested on: HS 578T breast
# [41] = tested on: MDA-MB-231 breast
# [42] = tested on: SK-MEL-2 melanoma
# [43] = tested on: IGROV1 ovarian
# [44] = tested on: UACC-62 melanoma
# [45] = tested on: HOP-62 NSCLC
# [46] = tested on: NCI/ADR-RES ovarian
# [47] = tested on: SW-620 colon
# [48] = tested on: MDA-MB-435
# [49] = tested on: OVCAR-8 ovarian
# [50] = tested on: K-562 leukemia
# [51] = tested on: SK-OV-3 ovarian
# [52] = tested on: RXF 393 renal
# [53] = tested on: T-47D breast
# [54] = tested on: SNB-75 CNS
smiles,measurement,setting,value
CC#CC#Cc1cccc(=O)o1,GI50,[1],5.97 µM
same,TGI,[1],21.8 µM
same,GI50,[2],24.2 µM
same,TGI,[2],40 µM
same,GI50,[3],16.9 µM
same,TGI,[3],30.5 µM
same,GI50,[4],12.8 µM
same,TGI,[4],26.3 µM
same,GI50,[5],8.15 µM
same,TGI,[5],20.6 µM
same,GI50,[6],26.8 µM
same,TGI,[6],> 100 µM
same,GI50,[7],13 µM
same,TGI,[7],25.6 µM
same,GI50,[8],2.1 µM
same,TGI,[8],4.78 µM
same,GI50,[9],3.34 µM
same,TGI,[9],10.2 µM
same,GI50,[10],13.5 µM
same,TGI,[10],29 µM
same,GI50,[11],1.38 µM
same,TGI,[11],7.2 µM
same,GI50,[12],21 µM
same,TGI,[12],96.1 µM
same,GI50,[13],8.08 µM
same,TGI,[13],30.2 µM
same,GI50,[14],15.7 µM
same,TGI,[14],29.2 µM
same,GI50,[15],4.29 µM
same,TGI,[15],18.1 µM
same,GI50,[16],4.87 µM
same,TGI,[16],17 µM
same,GI50,[17],10.2 µM
same,TGI,[17],22.6 µM
same,GI50,[18],2.8 µM
same,TGI,[18],14.1 µM
same,GI50,[19],9.52 µM
same,TGI,[19],24.3 µM
same,GI50,[20],4.17 µM
same,TGI,[20],14.6 µM
same,GI50,[21],5.63 µM
same,TGI,[21],26.6 µM
same,GI50,[22],11.3 µM
same,TGI,[22],26.7 µM
same,GI50,[23],13.6 µM
same,TGI,[23],28.9 µM
same,GI50,[24],3.85 µM
same,TGI,[24],14.4 µM
same,GI50,[25],2.1 µM
same,TGI,[25],5.79 µM
same,GI50,[26],2.91 µM
same,TGI,[26],18.1 µM
same,GI50,[27],11.2 µM
same,TGI,[27],24.9 µM
same,GI50,[28],10.7 µM
same,TGI,[28],24.1 µM
same,GI50,[29],8.58 µM
same,TGI,[29],23.3 µM
same,GI50,[30],1.14 µM
same,TGI,[30],> 100 µM
same,GI50,[31],16.5 µM
same,TGI,[31],30 µM
same,GI50,[32],16 µM
same,TGI,[32],29.5 µM
same,GI50,[33],3.67 µM
same,TGI,[33],16.3 µM
same,GI50,[34],5.08 µM
same,TGI,[34],18.3 µM
same,GI50,[35],2.37 µM
same,TGI,[35],10.1 µM
same,GI50,[36],14.6 µM
same,TGI,[36],31.5 µM
same,GI50,[37],4.25 µM
same,TGI,[37],16.7 µM
same,GI50,[38],3.4 µM
same,TGI,[38],18.4 µM
same,GI50,[39],3.14 µM
same,TGI,[39],16.2 µM
same,GI50,[40],10.2 µM
same,TGI,[40],81.4 µM
same,GI50,[41],10.8 µM
same,TGI,[41],24.7 µM
same,GI50,[42],3.73 µM
same,TGI,[42],34.3 µM
same,GI50,[43],4.31 µM
same,TGI,[43],19.8 µM
same,GI50,[44],2.98 µM
same,TGI,[44],14.6 µM
same,GI50,[45],13.8 µM
same,TGI,[45],27 µM
same,GI50,[46],18.2 µM
same,TGI,[46],> 100 µM
same,GI50,[47],10 µM
same,TGI,[47],24.9 µM
same,GI50,[48],3.82 µM
same,TGI,[48],22.7 µM
same,GI50,[49],4.89 µM
same,TGI,[49],> 100 µM
same,GI50,[50],0.0136 µM
same,TGI,[50],> 100 µM
same,GI50,[51],20.5 µM
same,TGI,[51],56.4 µM
same,GI50,[52],2.48 µM
same,TGI,[52],6.63 µM
same,GI50,[53],4.35 µM
same,TGI,[53],18.7 µM
same,GI50,[54],4.75 µM
same,TGI,[54],21 µM
